Measured values from patent publication US20230293535A1, “ERBB/BTK INHIBITORS” (Dizal (Jiangsu) Pharmaceutical Co., Ltd., priority 2018, published 2023).

Tests used:
Format in all cases: cell-based
[1] = molecular target: T1, human EGFR exon 20 H773_V774insNPH (Homo sapiens, UniProt P00533, INS773NPH); assay: EGFR Exon20 NPH insertion cellular phosphorylation inhibition (MSD pEGFR Y1068/total EGFR); details: Ba/F3 EGFR NPH ins cells, 4 h compound, p-EGFR(Y1068)/total EGFR;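 also: IL3-independent Ba/F3 cells with constitutively phosphorylated EGFR, compound exposure at 37 °C under 5% CO2, electrochemiluminescent MSD measurement of the p-EGFR to total EGFR ratio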
T1 construct: host or cells: Ba/F3
Description: (§1) One day before the test, WT or mutant cells were seeded in 96 well plates at appropriate concentrations with corresponding growth media supplemented with 1% FBS, and incubated overnight. The next day, tested compounds at a series of concentrations were added into each individual well of the plates, and the plates were incubated for 4 h at 37° C. with 5% CO2.
The EGFR (Y1068) phosphorylation level (activity) of cells in each well were then measured with MSD kit named “MULTI-SPOT®96 4-Spot HB Prototype EGFR Triplex [sequence]: pEGFR(Tyr1068),pEGFR(Tyr1173), Total EGFR” according to the manufacturer’s instruction (MESO SCALE DISCOVERY, Cat# N45ZB-1). The assay is an electrochemiluminescent method for determining both phosphorylated and total EGFR of cells with an MSD SECTOR® Imager and the ratio of p-EGFR/total EGFR can be generated by the machine.

[2] = molecular target: T2, human EGFR exon 20 V769_D770insASV (Homo sapiens, UniProt P00533, INS769ASV); assay: EGFR Exon20 ASV insertion cellular phosphorylation inhibition (MSD pEGFR Y1068/total EGFR); details: Ba/F3 EGFR ASV ins cells, 4 h compound, p-EGFR(Y1068)/total EGFR;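 also: electrochemiluminescent readout on an MSD SECTOR Imager, IL3-independent transduced cells in medium with 1% FBS, compound concentration series at 37 °C and 5% CO2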
T2 construct: expressed in transfected cells; host or cells: Ba/F3 (DSMZ ACC-300), lentiviral transduction, puromycin selection, IL3 depletion

EGFR L858R&T790M = molecular target: T3, EGFR L858R&T790M (Homo sapiens, UniProt P00533, L858R/T790M); assay: EGFR L858R and T790M cellular phosphorylation inhibition in NCI-H1975 (MSD); details: NCI-H1975 cells, 4 h compound, p-EGFR(Y1068)/total EGFR; read-out: EGFR L858R and T790M mutation IC50;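 also: phosphorylated and total EGFR detected by electrochemiluminescence, cells exposed to compound in medium containing 1% FBS at 37 °C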
T3 construct: host or cells: NCI-H1975
Description: as §1
(§2) The EGFR (Y1068) phosphorylation level (activity) of cells in each well were then measured with MSD kit named “MULTI-SPOT®96 4-Spot HB Prototype EGFR Triplex [sequence]: pEGFR(Tyr1068),pEGFR(Tyr1173), Total EGFR” according to the manufacturer’s instruction (MESO SCALE DISCOVERY, Cat# N45ZB-1). The assay is an electrochemiluminescent method for determining both phosphorylated and total EGFR of cells with an MSD SECTOR® Imager and the ratio of p-EGFR/total EGFR can be generated by the machine. The Her2 (Y1248) phosphorylation level (activity) of cells in each well were measured with MSD Kit named “Phospho-ErbB2 (Tyr1248) Assay Whole Cell Lysate Kit” according to the manufacturer’s instruction (MESO SCALE DISCOVERY, Cat# K151CLD-3). The assay is an electrochemiluminescent method (MESO SCALE DISCOVERY) for determining both phosphorylated and total Her2 of cells with an MSD SECTOR® Imager and then the ratio of p-Her2/total Her2 can be generated by the machine.

[3] = molecular target: T4, human Her2 exon 20 insertion mutation YVMA (Homo sapiens, UniProt P04626, INS775YVMA); assay: Her2 Exon 20 YVMA insertion cellular phosphorylation inhibition (MSD p-Her2 Y1248/total Her2); details: Her2 YVMAins cells, 4 h compound;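 also: lentivirally transduced NIH-3T3 cells in 1% FBS medium, electrochemiluminescent MSD read-out, graded compound concentrations at 37 °C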
T4 construct: expressed in transfected cells; host or cells: NIH-3T3, lentiviral transduction, puromycin selection

WT EGFR = molecular target: T5, WT EGFR (Homo sapiens, UniProt P00533); assay: WT EGFR cellular phosphorylation inhibition in A-431 (hEGF stimulated, MSD); details: A431 cells, 4 h compound, then 100 ng/ml hEGF 10 min;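 also: electrochemiluminescence read-out of EGFR Tyr1068 phosphorylation expressed as ratio to total EGFR, cells kept in medium with 1% FBS, compounds tested as a concentration series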
T5 construct: host or cells: A-431
Description: as §1, §2

Ba/F3 EGFR NPH ins cells = assay: Cell proliferation, Ba/F3 EGFR NPH ins (CellTiter-Glo, 72 h); details: Ba/F3 EGFR, 72 h, Ba/F3 EGFR NPH ins, 72 h proliferation; read-out: EGFR Exon20 NPH insertion GI50;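 also: IL3-independent cells carrying constitutively phosphorylated EGFR, compound dilution series, viable cells quantified by ATP luminescence, growth relative to DMSO wells after subtracting pre-dosing (day 0) baseline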
Ba/F3 EGFR ASV ins cells = assay: Cell proliferation, Ba/F3 EGFR ASV ins (CellTiter-Glo, 72 h); details: Ba/F3 EGFR, 72 h, Ba/F3 EGFR ASV ins, 72 h proliferation; read-out: EGFR Exon20 ASV insertion GI50;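 also: IL3-independent Ba/F3 cells transduced with EGFR V769_D770insASV, cellular ATP luminescence after compound exposure, growth relative to DMSO control with the day-0 baseline reading subtracted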
[4] = test system: NCI-H1975 EGFR L858R/T790M cells; assay: Cell proliferation, NCI-H1975 EGFR L858R/T790M (CellTiter-Glo, 72 h); details: Homo sapiens, NCI-H1975, 72 h, NCI-H1975, 72 h proliferation; read-out: EGFR L858R and T790M mutation GI50;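 also: viable cells quantified by luciferase-based ATP luminescence, proliferation expressed relative to DMSO-treated wells (100%) after subtracting a parallel plate read at the time of dosing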
[5] = test system: Her2 exon 20 insertion YVMA transduced NIH-3T3 cell line; assay: Cell proliferation, Her2 YVMAins NIH-3T3 (CellTiter-Glo, 72 h); details: Mus musculus, NIH3T3, 72 h, Her2 YVMAins cells, 72 h proliferation; read-out: Her2 Exon 20 YVMA insertion GI50;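 also: viable cells quantified by ATP luminescence, growth over a day-zero baseline plate expressed as percent of DMSO control growth, compound dilution series in 10% FBS medium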
WT EGFR cell line A-431 = assay: Cell proliferation, WT EGFR A431 (CellTiter-Glo, 72 h); details: Homo sapiens, A-431, 72 h, A431, 72 h proliferation; read-out: EGFR WT A431 GI50;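 also: proliferation from a luminescent ATP viability signal, expressed as 100 × (treated minus time-zero plate) over (DMSO control minus time-zero plate), cells grown with 10% FBS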
Description: WT or mutant cells were seeded in 384 well plates at appropriate concentrations with corresponding growth media supplemented with 10% FBS, for each experiment, identical plates were prepared in duplicates, and the plates were incubated overnight. On the next day, one of each duplicated plates was dosed with tested compounds at a series of concentrations, and another one of the duplicated plate was analysied for G0 value. The dosed plates were incubate for another 72 h at 37° C. with 5% CO2 and the number of viable cells in each well of the G0 plates or the dosed plates were measured by CellTiter-Glo® Luminescent Cell Viability Assay (Promega). This assay is a luminescent method for determining the number viable cells through measurement of cellular ATP concentration by detection of luciferase activity. Detection reagents (15 µl) was dispensed into per well, and the plates were incubate for 30 min at room temperature. Then, the luminescence in each well was measured using the Envision plate reader (PerkinElmer). The percentage of proliferation was calculated based on the formula: %Proliferation= 100 × (G3 value of sample well-Go value)/(G3 value of DMSO control-Go value).

OCI-LY-10 cells = assay: BTK (wt) cell proliferation, OCI-LY-10 (CellTiter-Glo, 72 h); details: Homo sapiens, OCI-Ly10, 72 h, OCI-LY-10 cells, 72 h, CellTiter-Glo; read-out: BTK WT OCI-LY-10 GI50;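 also: viable cells quantified via cellular ATP luminescence, proliferation given as percent of DMSO control after subtracting a duplicate plate read at time of dosing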
TMD-8 cells = assay: BTK (wt) cell proliferation, TMD-8 (CellTiter-Glo, 72 h); details: Homo sapiens, TMD8, 72 h, TMD-8 cells, 72 h, CellTiter-Glo; read-out: BTK WT TMD-8 GI50;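 also: viable cells quantified by ATP-based luminescence, proliferation expressed as percent of DMSO control after subtracting a time-zero baseline plate read at dosing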
Ri-1 cells = assay: BTK (wt) cell proliferation, Ri-1 (CellTiter-Glo, 72 h); details: Ri-1, 72 h, Ri-1 cells, 72 h, CellTiter-Glo; read-out: BTK WT Ri-1 GI50;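 also: viable cells quantified as cellular ATP luminescence, proliferation normalized to a time-zero plate and the DMSO control, compounds tested across a dilution series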
DB cells = assay: BTK (wt) cell proliferation, DB (CellTiter-Glo, 72 h); details: Homo sapiens, DB, DB cells, CellTiter-Glo, read-out: Non-BCR activated DB GI50;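 also: DB cells in 384-well plates given a dilution series of compound, viable cells read by ATP luminescence, growth expressed versus DMSO control after subtracting a time-zero plate reading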

T2 sequence (P00533 with tags, fused parts or gaps INS769ASV): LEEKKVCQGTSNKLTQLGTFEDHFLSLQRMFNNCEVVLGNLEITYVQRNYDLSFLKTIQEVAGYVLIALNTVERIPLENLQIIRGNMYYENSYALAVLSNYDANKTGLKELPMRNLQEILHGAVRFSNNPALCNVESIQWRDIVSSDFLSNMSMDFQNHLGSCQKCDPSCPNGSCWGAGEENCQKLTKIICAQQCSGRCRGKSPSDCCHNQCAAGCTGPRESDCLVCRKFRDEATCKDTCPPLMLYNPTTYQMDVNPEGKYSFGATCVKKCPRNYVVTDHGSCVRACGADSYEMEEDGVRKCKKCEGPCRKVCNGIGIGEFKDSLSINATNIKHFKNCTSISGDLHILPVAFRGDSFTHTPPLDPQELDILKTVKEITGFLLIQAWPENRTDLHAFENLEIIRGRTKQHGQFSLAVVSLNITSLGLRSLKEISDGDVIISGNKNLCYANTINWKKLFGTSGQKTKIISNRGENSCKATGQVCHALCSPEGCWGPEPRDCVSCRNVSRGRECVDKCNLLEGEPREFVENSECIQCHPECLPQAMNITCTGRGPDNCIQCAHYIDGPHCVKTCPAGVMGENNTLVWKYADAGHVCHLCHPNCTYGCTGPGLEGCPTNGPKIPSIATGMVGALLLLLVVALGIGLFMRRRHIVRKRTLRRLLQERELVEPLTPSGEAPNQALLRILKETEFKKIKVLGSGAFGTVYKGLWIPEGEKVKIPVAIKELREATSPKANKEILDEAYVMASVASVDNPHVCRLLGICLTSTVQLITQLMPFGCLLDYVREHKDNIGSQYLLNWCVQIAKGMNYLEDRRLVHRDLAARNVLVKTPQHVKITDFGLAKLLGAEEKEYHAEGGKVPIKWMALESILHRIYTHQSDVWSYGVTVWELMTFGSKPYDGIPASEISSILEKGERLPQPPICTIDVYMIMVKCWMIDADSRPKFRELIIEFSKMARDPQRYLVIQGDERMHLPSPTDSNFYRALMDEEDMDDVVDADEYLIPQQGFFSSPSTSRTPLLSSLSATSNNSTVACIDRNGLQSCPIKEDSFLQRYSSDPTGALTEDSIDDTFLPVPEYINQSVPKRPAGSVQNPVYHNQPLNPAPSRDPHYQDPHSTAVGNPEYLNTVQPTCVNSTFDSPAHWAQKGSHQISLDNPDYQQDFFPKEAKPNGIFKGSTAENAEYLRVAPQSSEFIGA
T1 sequence (P00533 with tags, fused parts or gaps INS773NPH): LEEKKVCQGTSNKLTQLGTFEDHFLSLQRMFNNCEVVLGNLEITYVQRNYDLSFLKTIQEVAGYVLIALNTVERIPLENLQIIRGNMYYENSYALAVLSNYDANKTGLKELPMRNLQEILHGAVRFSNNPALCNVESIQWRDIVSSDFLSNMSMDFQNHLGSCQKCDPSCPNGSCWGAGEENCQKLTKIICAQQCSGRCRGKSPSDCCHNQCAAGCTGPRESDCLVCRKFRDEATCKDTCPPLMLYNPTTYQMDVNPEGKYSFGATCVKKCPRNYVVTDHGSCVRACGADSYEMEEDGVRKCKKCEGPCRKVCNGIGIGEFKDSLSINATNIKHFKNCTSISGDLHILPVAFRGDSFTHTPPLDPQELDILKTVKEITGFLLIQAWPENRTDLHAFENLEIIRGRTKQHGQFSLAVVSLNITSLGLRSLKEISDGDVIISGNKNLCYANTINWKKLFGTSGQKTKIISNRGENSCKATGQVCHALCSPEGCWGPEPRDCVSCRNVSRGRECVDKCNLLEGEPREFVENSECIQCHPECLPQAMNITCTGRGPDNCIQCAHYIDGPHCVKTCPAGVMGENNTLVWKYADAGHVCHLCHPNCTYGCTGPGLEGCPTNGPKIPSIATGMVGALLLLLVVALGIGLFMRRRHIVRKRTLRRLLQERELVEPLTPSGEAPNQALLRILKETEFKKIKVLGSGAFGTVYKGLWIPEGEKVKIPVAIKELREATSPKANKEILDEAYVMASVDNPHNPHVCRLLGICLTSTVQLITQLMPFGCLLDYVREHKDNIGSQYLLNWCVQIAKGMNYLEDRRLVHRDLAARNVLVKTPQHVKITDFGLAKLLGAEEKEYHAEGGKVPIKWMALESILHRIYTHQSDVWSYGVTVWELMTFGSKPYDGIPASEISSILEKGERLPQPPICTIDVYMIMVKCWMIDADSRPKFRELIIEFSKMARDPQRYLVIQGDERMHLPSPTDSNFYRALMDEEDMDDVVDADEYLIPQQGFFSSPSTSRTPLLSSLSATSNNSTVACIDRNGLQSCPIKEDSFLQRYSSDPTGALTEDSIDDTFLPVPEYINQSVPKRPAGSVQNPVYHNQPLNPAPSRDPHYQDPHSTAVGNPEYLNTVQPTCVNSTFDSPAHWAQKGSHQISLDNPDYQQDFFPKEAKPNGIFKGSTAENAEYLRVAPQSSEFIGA
T3 sequence (P00533 25-1210 T790M/L858R): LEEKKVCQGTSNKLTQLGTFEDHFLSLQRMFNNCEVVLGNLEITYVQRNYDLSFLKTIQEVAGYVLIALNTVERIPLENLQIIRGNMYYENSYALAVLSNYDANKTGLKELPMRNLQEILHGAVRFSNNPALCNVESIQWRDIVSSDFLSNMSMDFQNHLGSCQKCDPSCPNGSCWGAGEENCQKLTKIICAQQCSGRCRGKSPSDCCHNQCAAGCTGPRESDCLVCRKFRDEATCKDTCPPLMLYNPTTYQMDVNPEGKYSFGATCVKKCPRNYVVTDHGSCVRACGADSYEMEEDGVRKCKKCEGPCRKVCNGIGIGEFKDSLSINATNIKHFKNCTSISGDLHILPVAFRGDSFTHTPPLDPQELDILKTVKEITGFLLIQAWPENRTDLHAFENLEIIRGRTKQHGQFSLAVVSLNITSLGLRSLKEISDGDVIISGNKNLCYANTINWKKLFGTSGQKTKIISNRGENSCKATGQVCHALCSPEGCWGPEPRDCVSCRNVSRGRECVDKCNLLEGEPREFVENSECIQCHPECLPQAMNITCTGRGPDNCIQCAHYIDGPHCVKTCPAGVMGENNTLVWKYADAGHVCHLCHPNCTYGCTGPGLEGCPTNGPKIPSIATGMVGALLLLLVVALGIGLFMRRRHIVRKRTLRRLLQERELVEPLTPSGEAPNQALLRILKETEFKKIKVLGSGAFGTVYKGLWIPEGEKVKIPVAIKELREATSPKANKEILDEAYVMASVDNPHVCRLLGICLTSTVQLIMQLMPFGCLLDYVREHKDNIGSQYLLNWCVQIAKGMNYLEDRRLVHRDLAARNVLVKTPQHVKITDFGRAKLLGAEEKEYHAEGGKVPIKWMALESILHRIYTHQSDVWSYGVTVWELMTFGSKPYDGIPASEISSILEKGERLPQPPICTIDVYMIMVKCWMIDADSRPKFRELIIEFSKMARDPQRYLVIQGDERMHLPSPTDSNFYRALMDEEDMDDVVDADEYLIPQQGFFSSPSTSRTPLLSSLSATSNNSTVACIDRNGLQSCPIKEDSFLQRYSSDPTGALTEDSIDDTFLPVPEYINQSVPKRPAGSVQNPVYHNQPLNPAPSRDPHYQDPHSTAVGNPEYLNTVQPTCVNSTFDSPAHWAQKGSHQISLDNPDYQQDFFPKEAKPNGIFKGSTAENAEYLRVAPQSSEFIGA
T5 sequence (P00533 25-1210): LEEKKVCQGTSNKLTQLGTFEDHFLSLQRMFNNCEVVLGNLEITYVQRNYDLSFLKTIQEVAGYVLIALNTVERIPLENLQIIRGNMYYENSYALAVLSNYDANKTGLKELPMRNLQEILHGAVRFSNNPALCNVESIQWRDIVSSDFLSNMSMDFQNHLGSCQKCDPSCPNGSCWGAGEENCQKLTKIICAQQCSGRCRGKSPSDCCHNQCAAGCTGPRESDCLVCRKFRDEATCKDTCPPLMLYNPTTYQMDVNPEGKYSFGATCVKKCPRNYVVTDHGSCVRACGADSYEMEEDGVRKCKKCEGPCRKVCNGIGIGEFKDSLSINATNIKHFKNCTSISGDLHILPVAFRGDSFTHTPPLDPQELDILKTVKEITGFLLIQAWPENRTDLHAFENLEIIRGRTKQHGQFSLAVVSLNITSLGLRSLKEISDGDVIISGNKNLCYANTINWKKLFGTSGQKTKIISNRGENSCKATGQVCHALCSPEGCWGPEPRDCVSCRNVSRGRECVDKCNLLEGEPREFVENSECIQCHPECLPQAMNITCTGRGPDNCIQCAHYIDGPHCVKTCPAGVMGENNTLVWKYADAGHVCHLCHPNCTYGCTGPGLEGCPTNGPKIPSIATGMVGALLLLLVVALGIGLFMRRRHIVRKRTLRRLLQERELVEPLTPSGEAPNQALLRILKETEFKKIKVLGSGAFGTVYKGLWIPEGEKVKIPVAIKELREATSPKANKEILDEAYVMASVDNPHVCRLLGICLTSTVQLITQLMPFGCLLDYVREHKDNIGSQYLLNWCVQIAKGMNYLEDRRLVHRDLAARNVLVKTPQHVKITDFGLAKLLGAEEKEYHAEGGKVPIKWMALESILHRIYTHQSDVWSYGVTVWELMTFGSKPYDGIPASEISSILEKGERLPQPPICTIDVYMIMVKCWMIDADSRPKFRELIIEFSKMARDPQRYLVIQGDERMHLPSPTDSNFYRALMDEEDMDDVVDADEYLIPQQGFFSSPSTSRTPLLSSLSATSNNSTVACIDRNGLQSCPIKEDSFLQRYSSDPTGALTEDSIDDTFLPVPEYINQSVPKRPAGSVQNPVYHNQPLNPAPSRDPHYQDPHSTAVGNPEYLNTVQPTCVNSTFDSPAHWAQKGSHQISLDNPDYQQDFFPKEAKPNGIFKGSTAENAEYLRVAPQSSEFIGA

IC50 [1] [nM]	IC50 [2] [nM]	IC50 (EGFR L858R&T790M) [nM]	IC50 [3] [nM]	IC50 (WT EGFR) [nM]	GI50 (Ba/F3 EGFR NPH ins cells) [nM]	GI50 (Ba/F3 EGFR ASV ins cells) [nM]	GI50 [4] [nM]	GI50 (WT EGFR cell line A-431) [nM]	GI50 (OCI-LY-10 cells) [nM]	SMILES	GI50 [5] [nM]	GI50 (TMD-8 cells) [nM]	GI50 (Ri-1 cells) [nM]	GI50 (DB cells) [nM]
51.2	51.9	1	21.2	362	140	156	24.4	84.8	22.3	C=CC(=O)Nc1cc(Nc2nccc(Nc3cc(Cl)c(F)cc3C(C)(C)O)n2)c(OC)cc1N1CC[C@H](N(C)C)C1 [Compound 87, (S)-N-(5-(4-(5-chloro-4-fluoro-2-(2-hydroxypropan-2-yl)phenylamino)pyrimidin-2-ylamino)-2-(3-(dimethylamino)pyrrolidin-1-yl)-4-methoxyphenyl)a crylamide]	827	13.7	48	1210
29.9	39.4	2.4	14.2	60.5	68	104	6.1	41.3	4.42	C=CC(=O)Nc1cc(Nc2ncnc(Nc3cc(Cl)c(Cl)cc3C(C)(C)O)n2)c(OC)cc1N1CC[C@@H]1CN(C)C [Compound 54, (R)-N-(5-(4-(4,5-dichloro-2-(2-hydroxypropan-2-yl)phenylamino)-1,3,5-triazin-2-ylamino)-2-(2-((dimethylamino)methyl)azetidin-1-yl)-4-methoxyphenyl)acrylamide]	210	3.62	9.97	> 3000
20.8	9.6	0.6	8.2	23.6	22.6	25.4	2.3	14.9	> 3000	C=CC(=O)Nc1cc(Nc2ncnc(Nc3ccccc3C(C)(O)C(F)(F)F)n2)c(OC)cc1N(C)CCN(C)C (centres unmarked) [Compound 66, N-(2-((2-(dimethylamino)ethyl)(methyl)amino)-4-methoxy-5-(4-(2-(1,1,1-trifluoro-2-hydroxypropan-2-yl)phenylamino)-1,3,5-triazin-2-ylamino)phenyl) acrylamide]	29.1	582	> 3000	> 3000
13.6	10.1	0.6	4.3	26.6	32.8	21.9	2.5	18.7	20.4	C=CC(=O)Nc1cc(Nc2ncnc(Nc3cc(Cl)c(F)cc3C(C)(O)CC)n2)c(OC)cc1N(C)CCN(C)C (centres unmarked) [Compound 67, N-(5-(4-(5-chloro-4-fluoro-2-(2-hydroxybutan-2-yl)phenylamino)-1,3,5-triazin-2-ylamino)-2-((2-(dimethylamino)ethyl)(methyl)amino)-4-methoxyphenyl)acrylamide]	46.3	16	47.9	> 3000

The remaining lines, values behind:

SMILES	IC50 [1] [nM]	IC50 [2] [nM]	IC50 (EGFR L858R&T790M) [nM]	IC50 [3] [nM]	IC50 (WT EGFR) [nM]	GI50 (Ba/F3 EGFR NPH ins cells) [nM]	GI50 (Ba/F3 EGFR ASV ins cells) [nM]	GI50 [4] [nM]	GI50 (WT EGFR cell line A-431) [nM]	GI50 (OCI-LY-10 cells) [nM]	GI50 [5] [nM]	GI50 (TMD-8 cells) [nM]	GI50 (Ri-1 cells) [nM]	GI50 (DB cells) [nM]
C=CC(=O)Nc1cc(Nc2ncnc(Nc3cc(Cl)c(F)cc3C(C)(C)O)n2)c(OC)cc1N1CC[C@@H]2CN(C)C[C@@H]21 [Compound 28, N-(5-(4-(5-chloro-4-fluoro-2-(2-hydroxypropan-2-yl)phenylamino)-1,3,5-triazin-2-ylamino)-4-methoxy-2-((3aR,6aR)-5-methylhexahydropyrrolo[3,4-b]pyrrol-1 (2H)-yl)phenyl)acrylamide]	50.6	21.7	1.4	15.2	42.1	67.7	58.2	8.9	21.2	119	114	34	230	> 3000
C=CC(=O)Nc1cc(Nc2ncnc(Nc3cc(F)c(F)cc3C(C)(C)O)n2)c(OC)cc1N(C)CCN(C)C [Compound 4, N-(5-(4-(4,5-difluoro-2-(2-hydroxypropan-2-yl)phenylamino)-1,3,5-triazin-2-ylamino)-2-((2-(dimethylamino)ethyl)(methyl)amino)-4-methoxyphenyl)ac rylamide]	8.2	6.1	0.4	5.5	11.1	32.2	20.7	6.9	15.7	8.9	31	77.1	61.4	> 3000
C=CC(=O)Nc1cc(Nc2ncnc(Nc3cc(F)c(F)cc3C(C)(C)O)n2)c(OC)cc1N1CCOC[C@@H]1CN(C)C [Compound 35, (S)-N-(5-(4-(4,5-difluoro-2-(2-hydroxypropan-2-yl)phenylamino)-1,3,5-triazin-2-ylamino)-2-(3-((dimethylamino)methyl)morpholino)-4-methoxyphenyl) acrylamide]	9.2	5.4	0.5	4.7	13.9	22.2	24.3	1.5	21.9	986	39.4	377	699	> 3000
C=CC(=O)Nc1cc(Nc2ncnc(Nc3cnc(F)cc3C(C)(C)O)n2)c(OC)cc1N(C)CCN(C)C [Compound 3, N-(2-((2-(dimethylamino)ethyl)(methyl)amino)-5-(4-(6-fluoro-4-(2-hydroxypropan-2-yl)pyridin-3-ylamino)-1,3,5-triazin-2-ylamino)-4-methoxyphenyl) acrylamide]	296	92.4	3.1	51.2	103	307	252	55.6	69.3	2510	183	635	> 3000	> 3000
C=CC(=O)Nc1cc(Nc2ncnc(Nc3cc(F)c(F)cc3C(C)(C)O)n2)c(OC)cc1N1CC[C@@H](N(C)C)C1 [Compound 27, (R)-N-(5-(4-(4,5-difluoro-2-(2-hydroxypropan-2-yl)phenylamino)-1,3,5-triazin-2-ylamino)-2-(3-(dimethylamino)pyrrolidin-1-yl)-4-methoxyphenyl)acry lamide]	28.3	19.4	0.7	15.6	34.8	57.9	64.7	5.2	26.2	17.7	106	11.6	120	> 3000
C=CC(=O)Nc1cc(Nc2ncnc(Nc3cc(Cl)c(Cl)cc3C(C)(C)O)n2)c(OC)cc1N(C)CCN(C)C [Compound 15, N-(5-(4-(4,5-dichloro-2-(2-hydroxypropan-2-yl)phenylamino)-1,3,5-triazin-2-ylamino)-2-((2-(dimethylamino)ethyl)(methyl)amino)-4-methoxyphenyl)a crylamide]	15.1	7.5	0.4	3.8	8.2	32.9	21.1	7.4	7.9	4.95	32.7	2.44	6.68	1340
